Reference: ChEMBL document CHEMBL3813662, “Synthesis and biological activity of pyrazole analogues of the staurosporine aglycon K252c” (Bioorg Med Chem, 2016)
Activity calls are given as the source filed them. No cut-off for these calls is given here.

Key:
K562 [1] = assay: Cytotoxicity against human K562 cells; assay type: functional, cell-based
K562 [2] = assay: Cytotoxicity against human K562 cells after 72 hrs by MTT assay; assay type: functional, cell-based; settings: K562, 72 h
[3] = target: T1, Serine/threonine-protein kinase pim-1 (Homo sapiens, UniProt P11309); assay: Inhibition of human full length (His)6-tagged Pim-1 expressed in insect Sf21 cells using RSRHSSYPAGT as substrate assessed as residual enzyme activity at 1 uM measured for 30 mins by [gamma-33P]ATP-based kinase assay
Target sequence in this assay (P11309 whole entry, looked up): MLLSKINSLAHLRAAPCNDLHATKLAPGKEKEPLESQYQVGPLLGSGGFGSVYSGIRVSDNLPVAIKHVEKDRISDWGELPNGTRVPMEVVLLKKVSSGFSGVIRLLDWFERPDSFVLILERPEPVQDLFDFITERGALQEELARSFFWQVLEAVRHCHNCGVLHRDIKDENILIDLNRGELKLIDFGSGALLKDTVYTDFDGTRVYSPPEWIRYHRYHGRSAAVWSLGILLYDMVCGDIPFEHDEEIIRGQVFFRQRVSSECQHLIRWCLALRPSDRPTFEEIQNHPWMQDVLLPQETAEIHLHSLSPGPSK

[4] = target: Serine/threonine-protein kinase pim-2 (Homo sapiens, UniProt Q9P1W9); assay: Inhibition of human full length GST-tagged Pim-2 expressed in Escherichia coli using RSRHSSYPAGT as substrate measured for 30 mins by [gamma-33P]ATP-based kinase assay
Calf thymus DNA [5] = assay: Displacement of EtBr from calf thymus double stranded DNA by fluorescence spectrophotometric analysis; assay type: nucleic-acid assay, Bos taurus
[6] = target: Protein kinase C alpha type (Homo sapiens) (UniProt P17252); assay: Inhibition of human full length (His)6-tagged PKCalpha expressed in insect Sf21 cells using histone H1 as substrate assessed as residual enzyme activity at 10 uM measured for 30 mins by [gamma-33P]ATP-based kinase assay
[7] = Cytotoxicity against human HCT116 cells after 72 hrs by MTT assay; assay type: functional, cell-based; settings: HCT-116, 72 h
[8] = target: Protein kinase C gamma type (Homo sapiens) (UniProt P05129); assay: Inhibition of human full length (His)6-tagged PKCgamma expressed in insect Sf21 cells using histone H1 as substrate assessed as residual enzyme activity at 10 uM measured for 30 mins by [gamma-33P]ATP-based kinase assay
[9] = target: T1, Serine/threonine-protein kinase pim-1; assay: Inhibition of human full length (His)6-tagged Pim-1 expressed in insect Sf21 cells using RSRHSSYPAGT as substrate assessed as residual enzyme activity at 10 uM measured for 30 mins by [gamma-33P]ATP-based kinase assay
Target sequence in this assay (P11309 whole entry, looked up): as above

[10] = target: T2, DNA topoisomerase 1 (Homo sapiens) (UniProt P11387); assay: Inhibition of human topoisomerase1 activity at 20 uM using pBR322 plasmid DNA as substrate incubated for 30 mins by EtBr-based gel electrophoresis
T2 sequence (whole entry): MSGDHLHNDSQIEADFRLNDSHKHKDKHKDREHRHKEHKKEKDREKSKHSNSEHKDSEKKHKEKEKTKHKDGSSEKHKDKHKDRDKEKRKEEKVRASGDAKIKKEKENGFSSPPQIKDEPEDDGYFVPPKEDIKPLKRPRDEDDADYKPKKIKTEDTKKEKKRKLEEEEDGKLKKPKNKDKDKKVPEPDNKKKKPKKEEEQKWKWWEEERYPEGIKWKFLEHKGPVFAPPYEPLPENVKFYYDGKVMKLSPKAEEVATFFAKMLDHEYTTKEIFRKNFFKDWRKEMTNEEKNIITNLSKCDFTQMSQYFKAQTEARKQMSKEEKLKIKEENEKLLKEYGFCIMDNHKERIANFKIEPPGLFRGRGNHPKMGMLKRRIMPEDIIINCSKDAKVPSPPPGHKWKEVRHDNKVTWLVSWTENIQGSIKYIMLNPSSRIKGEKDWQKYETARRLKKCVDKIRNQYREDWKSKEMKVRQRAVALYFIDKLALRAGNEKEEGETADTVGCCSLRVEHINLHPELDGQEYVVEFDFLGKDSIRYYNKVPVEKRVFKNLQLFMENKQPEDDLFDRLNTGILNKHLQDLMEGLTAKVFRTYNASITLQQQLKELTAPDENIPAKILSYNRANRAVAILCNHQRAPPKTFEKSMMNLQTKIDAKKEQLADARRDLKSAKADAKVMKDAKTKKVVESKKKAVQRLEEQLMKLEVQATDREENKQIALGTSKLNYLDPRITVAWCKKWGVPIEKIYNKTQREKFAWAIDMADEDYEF

[11] = target: Serine/threonine-protein kinase pim-3 (Homo sapiens, UniProt Q86V86); assay: Inhibition of human full length (His)6-tagged Pim-3 expressed in insect Sf21 cells using RSRHSSYPAGT as substrate measured for 30 mins by [gamma-33P]ATP-based kinase assay
[12] = target: Protein kinase C alpha type (Homo sapiens) (UniProt P17252); assay: Inhibition of human full length (His)6-tagged PKCalpha expressed in insect Sf21 cells using histone H1 as substrate assessed as residual enzyme activity at 1 uM measured for 30 mins by [gamma-33P]ATP-based kinase assay
[13] = target: Protein kinase C gamma type (Homo sapiens) (UniProt P05129); assay: Inhibition of human full length (His)6-tagged PKCgamma expressed in insect Sf21 cells using histone H1 as substrate assessed as residual enzyme activity at 1 uM measured for 30 mins by [gamma-33P]ATP-based kinase assay
[14] = target: T1, Serine/threonine-protein kinase pim-1; assay: Inhibition of human full length (His)6-tagged Pim-1 expressed in insect Sf21 cells using RSRHSSYPAGT as substrate measured for 30 mins by [gamma-33P]ATP-based kinase assay
Target sequence in this assay (P11309 whole entry): as the sequence (P11309 whole entry, looked up) above

Calf thymus DNA [15] = assay: Binding affinity to calf thymus double stranded DNA assessed as dsDNA level causing quenching of compound fluorescence by fluorescence spectrophotometric analysis; assay type: nucleic-acid assay, Bos taurus

Chain of Serine/threonine-protein kinase pim-2 (Q9P1W9 whole entry): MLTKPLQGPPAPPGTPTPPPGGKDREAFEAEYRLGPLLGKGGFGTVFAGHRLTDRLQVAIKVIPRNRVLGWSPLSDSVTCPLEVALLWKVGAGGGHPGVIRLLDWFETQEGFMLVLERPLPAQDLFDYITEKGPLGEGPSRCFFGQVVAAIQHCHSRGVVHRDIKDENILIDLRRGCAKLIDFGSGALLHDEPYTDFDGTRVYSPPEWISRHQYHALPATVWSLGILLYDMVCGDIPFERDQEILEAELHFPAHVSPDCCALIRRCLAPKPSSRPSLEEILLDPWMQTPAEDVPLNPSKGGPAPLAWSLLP

| Activity [3] [%] | IC50 [4] [µM] | IC50 (Calf thymus DNA [5]) [µM] | Activity [6] [%] | Activity [8] [%] | Activity [9] [%] | inhibition [10] | IC50 [11] [µM] | Activity [12] [%] | Activity [13] [%] | IC50 [14] [µM] | IC50 (Calf thymus DNA [15]) [µM] | Compound | IC50 (K562 [1]) [µM] | IC50 (K562 [2]) [µM] | IC50 [7] [µM] |
| --- | --- | --- | --- | --- | --- | --- | --- | --- | --- | --- | --- | --- | --- | --- | --- |
| 13 | 0.59 | 16 | 108 | 91 | 2 | inactive | 0.022 | 103 | 101 | 0.15 | 90 | c1ccc2c(c1)[nH]c1c3[nH]c4ccccc4c3c3[nH]ncc3c21 |  | 4.5 | 4.2 |
| 94 |  |  | 93 | 92 | 67 |  |  | 117 | 100 |  |  | O=c1[nH][nH]c(-c2c[nH]c3ccccc23)c1-c1c[nH]c2ccccc12 |  | > 50 | > 50 |
| 47 |  |  | 110 | 99 | 8 |  |  | 107 | 97 |  |  | O=c1[nH][nH]c2c1c1c3ccccc3[nH]c1c1[nH]c3ccccc3c12 |  | 8.8 | 3.5 |

Further lines, the molecule ahead of its results:

| Compound | Activity [3] [%] | IC50 [4] [µM] | IC50 (Calf thymus DNA [5]) [µM] | Activity [6] [%] | Activity [8] [%] | Activity [9] [%] | inhibition [10] | IC50 [11] [µM] | Activity [12] [%] | Activity [13] [%] | IC50 [14] [µM] | IC50 (Calf thymus DNA [15]) [µM] | IC50 (K562 [1]) [µM] | IC50 (K562 [2]) [µM] | IC50 [7] [µM] |
| --- | --- | --- | --- | --- | --- | --- | --- | --- | --- | --- | --- | --- | --- | --- | --- |
| O=C1NCc2c1c1c3ccccc3[nH]c1c1[nH]c3ccccc3c21 [STAUROSPORINONE] |  |  |  |  |  |  |  |  |  |  |  |  | 7.8 |  |  |
| c1ccc2c(-c3cn[nH]c3-c3c[nH]c4ccccc34)c[nH]c2c1 | 98 |  |  | 100 | 91 | 73 |  |  | 112 | 105 |  |  |  | 18 | 30 |
